According to paper PMC6505227, “Exploration of carbohydrate binding behavior and anti-proliferative activities of Arisaema tortuosum lectin” (BMC Molecular Biology, 2019):

T1: Arisaema tortuosum lectin (ATL) (Arisaema tortuosum, UniProt A0A1L6CAS7)
T1 construct: 257-residue precursor, predicted signal peptide 1-23, two domains (DOM1 N26-P132, DOM2 N146-A254) separated by processing; 52 kDa heterotetramer 2 x (A + B)
T1 sequence (A0A1L6CAS7 24-257): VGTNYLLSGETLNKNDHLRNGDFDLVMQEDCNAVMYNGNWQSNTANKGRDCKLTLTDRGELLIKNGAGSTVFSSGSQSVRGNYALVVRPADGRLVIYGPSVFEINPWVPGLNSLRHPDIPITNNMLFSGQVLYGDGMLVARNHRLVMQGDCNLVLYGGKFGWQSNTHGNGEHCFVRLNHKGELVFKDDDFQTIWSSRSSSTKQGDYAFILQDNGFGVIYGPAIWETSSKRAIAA


These molecules were tested against T1, Arisaema tortuosum lectin (ATL) (assay: CFG glycan microarray v5.[…], biotinylated lectin, fluorescence). Conditions: glycan immobilised via spacer; mean over 10, 1.0 and 0.1 µg/ml lectin.
Format: binding

Molecule | Avg. rank^a
Mana1-6(Mana1-3)Mana1-6(Mana1-2Mana1-3)Manb1-4GlcNAcb1-4GlcNAcb-Sp12 [compound 216] | 37.3 average rank (from RFU)
Gala1-4Galb1-3GlcNAcb1-2Mana1-6(Gala1-4Galb1-3GlcNAcb1-2Mana1-3)Manb1-4GlcNAcb1-4GlcNAcb-Sp19 [compound 404] | 70.8 average rank (from RFU)
Galb1-4GlcNAcb1-3Galb1-4GlcNAcb1-2Mana1-6(Galb1-4GlcNAcb1-3Galb1-4GlcNAcb1-2Mana1-3)Manb1-4GlcNAcb1-4(Fuca1-6)GlcNAcb-Sp24 [compound 576] | 20.9 average rank (from RFU)
Galb1-4GlcNAcb1-2Mana1-6(Mana1-3)Manb1-4GlcNAcb1-4GlcNAcb-Sp12 [compound 365] | 59.9 average rank (from RFU)
Mana1-6(Mana1-3)Mana1-6(Mana1-3)Manb1-4GlcNAcb1-4GlcNAcb-Sp12 [compound 217] | 67.9 average rank (from RFU)
Mana1-6(Galb1-4GlcNAcb1-2Mana1-3)Manb1-4GlcNAcb1-4GlcNAcb-Sp12 [compound 352] | 15.5 average rank (from RFU)
Galb1-4GlcNAcb1-2Mana1-6(GlcNAcb1-2Mana1-3)Manb1-4GlcNAcb1-4GlcNAc-Sp12 [compound 399] | 13.8 average rank (from RFU)
Fuca1-2Galb1-4 GlcNAcb1-2Mana1-6(Fuca1-2Galb1-4GlcNAcb1-2(Fuca1-2Galb1-4GlcNAcb1-4)Mana1-3)Manb1-4GlcNAcb1-4GlcNAcb-Sp12 [compound 446] | 25.9 average rank (from RFU)
Mana1-2Mana1-6(Mana1-3)Mana1-6(Mana1-2Mana1-2Mana1-3)Manb1-4GlcNAcb1-4GlcNAcb-Sp12 [compound 212] | 35.7 average rank (from RFU)
Galb1-4GlcNAcb1-6(Galb1-4GlcNAcb1-2)Mana1-6(Galb1-4GlcNAcb1-4(Galb1-4GlcNAcb1-2)Mana1-3)Manb1-4GlcNAcb1-4GlcNAcb-Sp21 [compound 388] | 51.9 average rank (from RFU)
Mana1-6(Mana1-3)Manb1-4GlcNAcb1-4(Fuca1-6)GlcNAcb-Sp19 [compound 485] | 62.5 average rank (from RFU)
Mana1-6(Mana1-3)Manb1-4GlcNAcb1-4GlcNAcb-Sp13 [compound 51] | 87.6 average rank (from RFU)
Fuca1-2Galb1-4(Fuca1-3)GlcNAcb1-2Mana1-6(Fuca1-2Galb1-4(Fuca1-3)GlcNAcb1-2Mana1-3)Manb1-4GlcNAcb1-4(Fuca1-6)GlcNAcb-Sp24 [compound 473] | 20.0 average rank (from RFU)
GlcNAcb1-3Galb1-4GlcNAcb1-2Mana1-6(GlcNAcb1-3Galb1-4GlcNAcb1-2Mana1-3)Manb1-4GlcNAcb1-4(Fuca1-6)GlcNAcb-Sp24 [compound 575] | 20.6 average rank (from RFU)
GlcNAcb1-2Mana1-6(GlcNAcb1-4(GlcNAcb1-2)Mana1-3)Manb1-4GlcNAcb1-4GlcNAc-Sp21 [compound 389] | 85.5 average rank (from RFU)
Galb1-3GlcNAcb1-2Mana1-6(Galb1-3GlcNAcb1-2Mana1-3)Manb1-4GlcNAcb1-4GlcNAcb-Sp19 [compound 325] | 57.7 average rank (from RFU)
Galb1-4GlcNAcb1-2Mana1-6(Galb1-4GlcNAcb1-4(Galb1-4GlcNAcb1-2)Mana1-3)Manb1-4GlcNAcb1-4GlcNAc-Sp21 [compound 370] | 24.5 average rank (from RFU)
Mana1-6(Mana1-2Mana1-3)Mana1-6(Mana1-2Mana1-3)Manb1-4GlcNAcb1-4GlcNAcb-Sp12 [compound 211] | 30.4 average rank (from RFU)
Galb1-3GlcNAcb1-2Mana1-6(Galb1-3GlcNAcb1-2Mana1-3)Manb1-4GlcNAcb1-4(Fuca1-6)GlcNAcb-Sp22 [compound 355] | 24.1 average rank (from RFU)
GlcNAcb1-2Mana1-6(GlcNAcb1-2Mana1-3)Manb1-4GlcNAcb1-4GlcNAcb-Sp13 [compound 53] | 48.0 average rank (from RFU)

Each molecule was assayed against Arisaema tortuosum lectin (Arisaema tortuosum) (assay: ITC; MicroCal iTC200, 18 injections, data fitted to a one site model; ATL dialysed in PBS; which partner was in the syringe is not stated). Conditions: not given.

Molecule | stoichiometry N
asialofetuin (natural protein, glycoprotein (complex glycoprotein, asialo form as named)) IPLDPVAGYKEPACDDPDTEQAALAAVDYINKHLPRGYKHTLNQIDSVKVWPRRPTGEVYDIEIDTLETTCHVLDPTPLANCSVRQQTQHAVEGDCDIHVLKQDGQFSVLFTKCDSSPDSAEDVRKLCPDCPLLAPLNDSRVVHAVEVALATFNAESNGSYLQLVEISRAQFVPLPVSVSVEFAVAATDCIAKEVVDPTKCNLLAEKQYGFCKGSVIQKALGGEDVRVTCTLFQTQPVIPQPQPDGAEAEAPSAVPDAAGPTPSAAGPPVASVVVGPSVVAVPLPLHRAHYDLRHTFSGVASVESSSGEAFHVGKTPIVGQPSIPGGPVRLCPGRIRYFKI | 0.32

What follows are molecules tested against Arisaema tortuosum lectin (Arisaema tortuosum) (assay: ITC; MicroCal iTC200, 18 injections, fitted with a one site model; ATL dialysed against PBS; set-up as described in ref. 21; temperature not stated). Conditions: not given.

Molecule | Ka [M⁻¹]
asialofetuin (natural protein, glycoprotein (complex glycoprotein, asialo form as named)) IPLDPVAGYKEPACDDPDTEQAALAAVDYINKHLPRGYKHTLNQIDSVKVWPRRPTGEVYDIEIDTLETTCHVLDPTPLANCSVRQQTQHAVEGDCDIHVLKQDGQFSVLFTKCDSSPDSAEDVRKLCPDCPLLAPLNDSRVVHAVEVALATFNAESNGSYLQLVEISRAQFVPLPVSVSVEFAVAATDCIAKEVVDPTKCNLLAEKQYGFCKGSVIQKALGGEDVRVTCTLFQTQPVIPQPQPDGAEAEAPSAVPDAAGPTPSAAGPPVASVVVGPSVVAVPLPLHRAHYDLRHTFSGVASVESSSGEAFHVGKTPIVGQPSIPGGPVRLCPGRIRYFKI | 116000
